Laboratory results from BindingDB's records for doi:10.1021/jm030398k (National Institute of Diabetes and Digestive and Kidney …, 2004).

Target: tyramine oxidase (microbial)
Assay: Compound was evaluated for inhibition of Microbial tyramine oxidase; irreversible

IC50: 20 µM
Structure (SMILES): NNC(=O)C1(c2ccccc2)CC1F (stereo unspecified) [2-Fluoro-1-phenyl-cyclopropanecarboxylic acid hydrazide]
